Laboratory results from patent US4275068A, “Lipid lowering alkylene glycols and ester derivatives thereof” (Siegfried AG, priority 1977, dated 1981).
Counter-ions that a name gives are not always drawn.

Assays:
[1] = test system: triglyceride content of the blood; assay: Triglyceride-lowering (dosis required for a 25% reduction of the triglyceride content of the blood); type: in vivo; details: dosis for 25% reduction of triglyceride content of the blood, mg/kg body weight; for ED25: read-out: Triglyceride ED 25
Text: The ED25 value, in this instance the dosis in mg/kg body weight required for a 25% reduction of the triglyceride content of the blood, is better, i.e. lower, with all compounds (1) tested so far than the corresponding activity value of 22 of clofibrate.

[2] = in vivo; details: mouse
Text: Toxicity values and activities of the above compounds (1) were investigated by animal tests in accordance with conventional methods as described, for example, in the above mentioned publications, and compared with the corresponding data of clofibrate, the well known cholesterol-lowering agent: […]

[3] = test system: cholesterol content of the blood; assay: Cholesterol-lowering (dosis required for a 25% reduction of the cholesterol content of the blood); type: in vivo; details: dosis for 25% reduction of cholesterol content of the blood; mg/kg body weight; read-out: Cholesterol ED 25
Text: The ED25 value, that is, the dosis in mg/kg body weight required for a 25% reduction of the cholesterol content of the blood, is 151 for clofibrate but better, i.e. lower, with all compounds (1) tested so far.

Row | SMILES | ED25 [1] [mg/kg] | LD50 [2] [mg/kg] | ED25 [3] [mg/kg] | Triglyceride ED 25 [1] [mg/kg] | Triglyceride ED 25 ([1]; listed as clofibrate) [mg/kg] | LD50 ([2]; in vivo) [mg/kg]
1 | CCC(C)(COC(=O)c1cccnc1)Oc1ccc(Cc2ccc(Cl)cc2)cc1 (stereo not drawn) [Example 5, Hydrochloride of nicotinic acid ester of 2-methyl-2-[4-(4'-chlorobenzyl)-phenoxy]-butanol] | 40 | > 3000 | 30 |  |  | 
2 | OCC(Oc1ccc(Cc2ccc(Cl)cc2)cc1)c1ccccc1 (stereo not drawn) [Example 3, 2-phenyl-2-[4-(4'-chlorobenzyl)-phenoxy]-ethanol] |  | > 3000 | > 100 |  |  | 
3 | CC(=O)Oc1ccccc1C(=O)OCCOc1ccc(Cc2ccc(Cl)cc2)cc1 [Example 6, Acetylsalicylic acid ester of 2-[4-(4'-chlorobenzyl)-phenoxy]-ethanol] | > 100 | > 3000 | 70 |  |  | 
4 | O=C(OCCOc1ccc(Cc2ccc(Cl)cc2)cc1)c1cccnc1 [Example 4, Ester of nicotinic acid and 2-[4-(4'-chlorobenzyl)-phenoxy]-ethanol] | 70 | > 3000 | 41 |  |  | 
5 | CCOC(=O)C(C)(C)Oc1ccc(Cl)cc1 [Clofibrate, reference compound] |  |  | 151 | 222 | 22 | 2180
6 | OCCOc1ccc(Cc2ccc(Cl)cc2)cc1 [Example 1, 2-[4-(4'-chlorobenzyl)-phenoxy]-ethanol] | < 50 | 3000 | 80 |  |  | 
7 | CCC(C)(CO)Oc1ccc(Cc2ccc(Cl)cc2)cc1 (stereo not drawn) [Example 2, 2-methyl-2-[4-(4'-chlorobenzyl)-phenoxy]-butanol] | 14 | 2960 | 80 |  |  | 
